Data published in US11491120B2, “Pharmacological prophylactics against stress-induced affective disorders in females” (The Trustees of Columbia University in the City of New York, priority 2017, dated 2022).

Test system: female 129S6/SvEv mice
Assay: Forced swim test (FST), immobility time, after stress
[1] = 0.1 mg/kg, 1 week prophylactic drug
[2] = 0.3 mg/kg, 1 week prophylactic drug
[3] = 2.5 mg/kg, 1 week prophylactic drug
[4] = 10 mg/kg, 1 week prophylactic drug
[5] = Forced Swim Test Day 1, Dunnett test Sal vs. drug (0.025), 1 week prophylactic drug
[6] = Forced Swim Test Day 1, Dunnett test Sal vs. drug (0.075), 1 week prophylactic drug
[7] = Forced Swim Test Day 1, Dunnett test Sal vs. drug (0.1), 1 week prophylactic drug
[8] = Forced Swim Test Day 1, Dunnett test Sal vs. drug (0.3), 1 week prophylactic drug
[9] = Forced Swim Test Day 1, Dunnett test Sal vs. drug (2.5), 1 week prophylactic drug
[10] = Forced Swim Test Day 1, Dunnett test Sal vs. drug (10), 1 week prophylactic drug

## N[C@]1(c2ccccc2Cl)CCC[C@H](O)C1=O [(2S,6S)-HNK]
[1]
  p, Sal vs. drug, Dunnett test: Immobility Time (min 1), Forced Swim Test Day 2: 0.0291
  p, Sal vs. drug, Dunnett test: Immobility Time (min 1-6), Forced Swim Test Day 2: 0.2191
  p, Sal vs. drug, Dunnett test: Immobility Time (min 2), Forced Swim Test Day 2: 0.4741
  p, Sal vs. drug, Dunnett test: Immobility Time (min 4), Forced Swim Test Day 2: 0.9995
  p, Sal vs. drug, Dunnett test: Immobility Time (min 5), Forced Swim Test Day 2: 0.9990
  p, Sal vs. drug, Dunnett test: Immobility Time (min 6), Forced Swim Test Day 2: 0.9952
  p, Sal vs. drug, Dunnett test: Immobility Time Average (min 3-6), Forced Swim Test Day 2: 0.9623
[2]
  p, Sal vs. drug, Dunnett test: Immobility Time (min 1), Forced Swim Test Day 2: 0.2627
  p, Sal vs. drug, Dunnett test: Immobility Time (min 1-6), Forced Swim Test Day 2: 0.9993
  p, Sal vs. drug, Dunnett test: Immobility Time (min 2), Forced Swim Test Day 2: 0.7509
  p, Sal vs. drug, Dunnett test: Immobility Time (min 4), Forced Swim Test Day 2: 0.9997
  p, Sal vs. drug, Dunnett test: Immobility Time (min 5), Forced Swim Test Day 2: 0.9882
  p, Sal vs. drug, Dunnett test: Immobility Time (min 6), Forced Swim Test Day 2: 0.4546
  p, Sal vs. drug, Dunnett test: Immobility Time Average (min 3-6), Forced Swim Test Day 2: 0.9999
[3]
  p, Sal vs. drug, Dunnett test: Immobility Time (min 1), Forced Swim Test Day 2: 0.9998
  p, Sal vs. drug, Dunnett test: Immobility Time (min 1-6), Forced Swim Test Day 2: 0.5400
  p, Sal vs. drug, Dunnett test: Immobility Time (min 2), Forced Swim Test Day 2: >0.9999
  p, Sal vs. drug, Dunnett test: Immobility Time (min 4), Forced Swim Test Day 2: 0.8764
  p, Sal vs. drug, Dunnett test: Immobility Time (min 5), Forced Swim Test Day 2: 0.6601
  p, Sal vs. drug, Dunnett test: Immobility Time (min 6), Forced Swim Test Day 2: 0.9992
  p, Sal vs. drug, Dunnett test: Immobility Time Average (min 3-6), Forced Swim Test Day 2: 0.9957
[4]
  p, Sal vs. drug, Dunnett test: Immobility Time (min 1), Forced Swim Test Day 2: 0.6616
  p, Sal vs. drug, Dunnett test: Immobility Time (min 1-6), Forced Swim Test Day 2: >0.9999
  p, Sal vs. drug, Dunnett test: Immobility Time (min 2), Forced Swim Test Day 2: 0.9991
  p, Sal vs. drug, Dunnett test: Immobility Time (min 4), Forced Swim Test Day 2: 0.9999
  p, Sal vs. drug, Dunnett test: Immobility Time (min 5), Forced Swim Test Day 2: 0.9877
  p, Sal vs. drug, Dunnett test: Immobility Time (min 6), Forced Swim Test Day 2: 0.9994
  p, Sal vs. drug, Dunnett test: Immobility Time Average (min 3-6), Forced Swim Test Day 2: 0.9999
[5]
  * (significance), Immobility Time (min 1): ** (** p<0.01)
  p, Immobility Time (min 1): 0.0031
  p, Immobility Time (min 1-6): 0.8484
  p, Immobility Time (min 3): 0.9997
  p, Immobility Time (min 4): >0.9999
  p, Immobility Time (min 5): >0.9999
  p, Immobility Time (min 6): 0.9993
  p, Immobility Time Average (min 3-6): 0.9997
[6]
  p, Immobility Time (min 1): 0.0820
  p, Immobility Time (min 1-6): 0.0650
  p, Immobility Time (min 3): 0.9489
  p, Immobility Time (min 4): 0.9482
  p, Immobility Time (min 5): 0.9436
  p, Immobility Time (min 6): 0.6982
  p, Immobility Time Average (min 3-6): 0.7901
[7]
  * (significance), Immobility Time (min 1): *** (*** p<0.0001)
  p, Immobility Time (min 1): <0.0001
  p, Immobility Time (min 1-6): 0.5664
  p, Immobility Time (min 3): 0.9993
  p, Immobility Time (min 4): 0.9993
  p, Immobility Time (min 5): 0.9869
  p, Immobility Time (min 6): >0.9999
  p, Immobility Time Average (min 3-6): 0.9992
[8]
  * (significance), Immobility Time (min 1): * (* p<0.05)
  * (significance), Immobility Time (min 1-6): * (* p<0.05)
  p, Immobility Time (min 1): 0.0277
  p, Immobility Time (min 1-6): 0.0361
  p, Immobility Time (min 3): 0.4573
  p, Immobility Time (min 4): 0.8163
  p, Immobility Time (min 5): 0.9482
  p, Immobility Time (min 6): 0.6194
  p, Immobility Time Average (min 3-6): 0.5532
[9]
  * (significance), Immobility Time (min 1): * (* p<0.05)
  p, Immobility Time (min 1): 0.0147
  p, Immobility Time (min 1-6): 0.9878
  p, Immobility Time (min 3): 0.9995
  p, Immobility Time (min 4): 0.9958
  p, Immobility Time (min 5): 0.9958
  p, Immobility Time (min 6): 0.9992
  p, Immobility Time Average (min 3-6): 0.9990
[10]
  * (significance), Immobility Time (min 1): ** (** p<0.01)
  p, Immobility Time (min 1): 0.0064
  p, Immobility Time (min 1-6): >0.9999
  p, Immobility Time (min 3): 0.9307
  p, Immobility Time (min 4): 0.9497
  p, Immobility Time (min 5): 0.9952
  p, Immobility Time (min 6): 0.5393
  p, Immobility Time Average (min 3-6): 0.8035
All doses of (2S,6S)-HNK and all other dose groups, 1 week before CFC, female mice
  Immobility on FST Day 2 vs saline: failed to reduce average immobility
Single injection 1 week before stressor, female mice
  Prophylactic efficacy against stress-induced depressive-like behavior: but not (2S,6S)-HNK
